Assays:
[1] = system: HBV; assay: Anti-HBV activity in stable transfected HepG2.2.15 cell line (HBV DNA from secreted virions, realtime PCR); type: cell-based; conditions: Hepatitis B virus, HepG2.2.15, 144 h, HepG2.2.15 cells, 6 days of treatment, secreted virion HBV DNA; read-out: HepG2 2.15 EC50
[2] = system: HBV; assay: Anti-HBV activity in HepG2.117 cell line (Tet-off, intracellular HBV DNA, realtime PCR); type: cell-based; conditions: Hepatitis B virus, HepG2.117, 72 h, HepG2.117 cells, 3 days of treatment, intracellular HBV DNA; read-out: HepG2 117 EC50
[3] = system: HepG2 cells; assay: Cytotoxicity in HepG2 cells, 4 days, Resazurin assay; conditions: read-out: HepG2 4 days CC50; HepG2 cells, 4 days, Resazurin
[4] = Cytotoxicity in HepG2 cells using CellTiter-Blue (6 days); conditions: human
[5] = Cytotoxicity in HepG2 cells, 4 days, Resazurin assay; conditions: human
[6] = system: HepG2 cells; assay: Cytotoxicity in HepG2 cells using CellTiter-Blue (6 days); conditions: read-out: HepG2 6 days CC50, 6 days, CellTiter-Blue

Structure (SMILES): O=C(Nc1ccc(F)cc1)c1cccc(S(=O)(=O)NC2CCC2)c1 [Compound 5]
- EC50 [1]: 0.83 µM
- EC50 [2]: 0.9 µM
- CC50 [3]: 57.7 µM

Structure (SMILES): O=C(Nc1ccc(F)cc1)c1cccc(S(=O)(=O)N[C@@H]2CCOC2)c1 [Compound 8]
- EC50 [1]: 1.18 µM
- EC50 [2]: 2.03 µM
- CC50 [3]: > 100 µM

Structure (SMILES): O=C(Nc1ccc(F)cc1)c1cccc(S(=O)(=O)N[C@H]2CCOC2)c1 [Compound 9]
- EC50 [1]: 0.54 µM
- EC50 [2]: 1.36 µM
- CC50 [3]: > 100 µM

Structure (SMILES): CCC(CC)NS(=O)(=O)c1cccc(C(=O)Nc2ccc(F)cc2)c1 [Compound 10]
- EC50 [1]: 0.75 µM
- EC50 [2]: 3.63 µM
- CC50 [3]: 40.3 µM

Structure (SMILES): O=C(Nc1ccc(F)cc1)c1cc(S(=O)(=O)NC2CCCCC2)ccc1F [Compound 18]
- EC50 [1]: 0.78 µM
- EC50 [2]: 1.3 µM
- CC50 [3]: > 50 µM
- CC50 at 6 days [4]: 51.6 µM

Structure (SMILES): O=C(Nc1ccccc1)c1cc(S(=O)(=O)NC2CCCCC2)ccc1F [Compound 19]
- EC50 [1]: 0.66 µM
- EC50 [2]: 0.6 µM
- CC50 [3]: > 25 µM
- CC50 at 6 days [4]: 42.5 µM

Structure (SMILES): O=C(Nc1ccccc1)c1cc(S(=O)(=O)N2CCCCC2)c(Cl)cc1Cl [Compound 20]
- EC50 [1]: 0.5 µM
- EC50 [2]: 1 µM
- CC50 at 4 days [5]: 79.6 µM
- CC50 [6]: > 25 µM

Structure (SMILES): O=C(Nc1ccccc1)c1cccc(S(=O)(=O)NC2CCCC2)c1 [Compound 21]
- EC50 [1]: 0.6 µM
- EC50 [2]: 0.76 µM
- CC50 at 4 days ([5]; HepG2 cells): 41.1 µM
- CC50 [6]: 27.2 µM

Structure (SMILES): Cc1cccc(NC(=O)c2cc(S(=O)(=O)N3CCCCC3)ccc2Cl)c1 [Compound 22]
- EC50 [1]: 0.52 µM
- CC50 at 6 days [4]: > 25 µM

Structure (SMILES): O=C(Nc1ccc(F)cc1)c1ccc(Cl)c(S(=O)(=O)N2CCCCCC2)c1 [Compound 23]
- EC50 [1]: 0.66 µM
- EC50 [2]: 1.3 µM
- CC50 at 4 days ([5]; HepG2 cells): 19.6 µM
- CC50 [6]: 17 µM

Structure (SMILES): O=C(Nc1cccc(F)c1)c1cc(S(=O)(=O)N2CCCC2)c(Cl)cc1Cl [Compound 24]
- EC50 [1]: 0.79 µM
- CC50 at 6 days [4]: > 25 µM

Structure (SMILES): O=C(Nc1ccccc1)c1cc(S(=O)(=O)NCc2ccccc2)ccc1Cl [Compound 25]
- EC50 [1]: 0.8 µM
- EC50 [2]: 1.02 µM
- CC50 at 4 days ([5]; HepG2 cells): > 6.25 µM
- CC50 at 6 days [4]: > 25 µM

Structure (SMILES): CCN(CC)S(=O)(=O)c1ccc(Cl)c(C(=O)Nc2ccccc2)c1 [Compound 26]
- EC50 [1]: 1.04 µM
- CC50 [6]: > 25 µM

Structure (SMILES): Cc1cccc(NC(=O)c2cc(S(=O)(=O)N3CCOCC3)ccc2Cl)c1 [Compound 27]
- EC50 [1]: 1.13 µM
- CC50 at 6 days [4]: > 25 µM

Structure (SMILES): CC(C)(C)NS(=O)(=O)c1cccc(C(=O)Nc2ccc(F)cc2)c1 [Compound 28]
- EC50 [1]: 1.24 µM
- EC50 [2]: 2.28 µM
- CC50 [3]: 52.5 µM

Structure (SMILES): O=C(Nc1ccc(F)cc1)c1cc(S(=O)(=O)N2CCOCC2)ccc1Cl [Compound 29]
- EC50 [1]: 1.39 µM
- CC50 at 6 days [4]: > 25 µM

Structure (SMILES): O=C(Nc1ccc(Br)cc1)c1ccc(Cl)c(S(=O)(=O)N2CCCCCC2)c1 [Compound 30]
- EC50 [1]: 1.67 µM
- CC50 at 6 days [4]: > 25 µM

Structure (SMILES): O=C(Nc1ccccc1)c1ccc(F)c(S(=O)(=O)NC2CCCCC2)c1 [Compound 31]
- EC50 [1]: 2.23 µM
- CC50 [6]: 16.4 µM

Structure (SMILES): COc1ccc(NC(=O)c2ccc(Cl)c(S(=O)(=O)N3CCCCCC3)c2)cc1 [Compound 32]
- EC50 [1]: 2.59 µM
- EC50 [2]: 4.58 µM
- CC50 at 4 days ([5]; HepG2 cells): > 25 µM
- CC50 at 6 days [4]: 9.9 µM

Structure (SMILES): O=C(Nc1ccccc1Cl)c1ccc(Cl)c(S(=O)(=O)N2CCCCCC2)c1 [Compound 33]
- EC50 [1]: 3.56 µM
- CC50 at 6 days [4]: > 25 µM

Structure (SMILES): O=C(Nc1ccc(F)cc1)c1cccc(S(=O)(=O)N2CCCCC2)c1 [Compound 35]
- EC50 [1]: 4.5 µM
- EC50 [2]: 2.7 µM
- CC50 [3]: 70.4 µM

Structure (SMILES): CN(C)S(=O)(=O)c1cccc(C(=O)Nc2ccc(F)cc2)c1 [Compound 37]
- EC50 [1]: 5.02 µM
- EC50 [2]: 2.99 µM
- CC50 [3]: > 100 µM

Structure (SMILES): O=C(Nc1ccc(Cl)cc1)c1cc(S(=O)(=O)NC2CCCCC2)ccc1F [Compound 38]
- EC50 [1]: < 6.25 µM
- EC50 [2]: 15.5 µM
- CC50 at 4 days ([5]; HepG2 cells): 22.1 µM
- CC50 at 6 days [4]: 18.4 µM

Structure (SMILES): CC(=O)N1CCC(NS(=O)(=O)c2cccc(C(=O)Nc3ccc(F)cc3)c2)CC1 [Compound 39]
- EC50 [1]: 6.77 µM
- EC50 [2]: 4.68 µM
- CC50 [3]: > 100 µM

Structure (SMILES): CC(=O)N1CCN(S(=O)(=O)c2cccc(C(=O)Nc3ccc(F)cc3)c2)CC1 [Compound 40]
- EC50 [1]: 7.1 µM
- EC50 [2]: 6.29 µM
- CC50 [3]: > 100 µM

Structure (SMILES): O=C(Nc1ccc(F)cc1)c1cccc(S(=O)(=O)N2CCOCC2)c1 [Compound 41]
- EC50 [1]: 8.49 µM
- EC50 [2]: 11 µM
- CC50 [3]: > 100 µM

Structure (SMILES): O=C(Nc1ccccc1Cl)c1cc(S(=O)(=O)NC2CCCCC2)ccc1F [Compound 42]
- EC50 [1]: 11.6 µM
- EC50 [2]: > 25 µM
- CC50 at 6 days [4]: 37.2 µM

Structure (SMILES): O=C(Nc1cccc(Cl)c1)c1cc(S(=O)(=O)NC2CCCCC2)ccc1F [Compound 43]
- EC50 [1]: 15.1 µM
- EC50 [2]: > 25 µM
- CC50 at 4 days ([5]; HepG2 cells): > 25 µM
- CC50 at 6 days [4]: 36.3 µM

Structure (SMILES): CN1CCN(S(=O)(=O)c2cccc(C(=O)Nc3ccc(F)cc3)c2)CC1 [Compound 44]
- EC50 [1]: 26.5 µM
- EC50 [2]: 11.1 µM
- CC50 [3]: > 100 µM

Structure (SMILES): CN1CCC(NS(=O)(=O)c2cccc(C(=O)Nc3ccc(F)cc3)c2)CC1 [Compound 45]
- EC50 [1]: 59.3 µM
- EC50 [2]: 16 µM
- CC50 [3]: > 100 µM

Structure (SMILES): CN(C1CCCC1)S(=O)(=O)c1cccc(C(=O)Nc2ccc(F)cc2)c1 [Compound 46]
- EC50 [1]: 2.61 µM
- EC50 [2]: 11.1 µM
- CC50 [3]: 23.8 µM

Structure (SMILES): CC(C)NS(=O)(=O)c1cccc(C(=O)Nc2ccc(F)cc2)c1 [Compound 47]
- EC50 [1]: 0.74 µM
- EC50 [2]: 0.96 µM
- CC50 [3]: 57.5 µM

Structure (SMILES): O=C(Nc1cccc(F)c1)c1cccc(S(=O)(=O)NC2CCCC2)c1 [Compound 77]
- EC50 [1]: 0.27 µM
- EC50 [2]: 0.43 µM
- CC50 [3]: > 25 µM

Structure (SMILES): COc1cc(NC(=O)c2cccc(S(=O)(=O)N[C@H]3CCOC3)c2)ccc1F [Compound 103]
- EC50 [1]: 2.33 µM
- EC50 [2]: 2.66 µM
- CC50 [3]: > 25 µM

Structure (SMILES): Cc1c(F)ccc(NC(=O)c2cccc(S(=O)(=O)N[C@H]3CCOC3)c2)c1F [Compound 104]
- EC50 [1]: 0.29 µM
- EC50 [2]: 0.78 µM
- CC50 [3]: > 25 µM

Structure (SMILES): Cc1cc(NC(=O)c2cccc(S(=O)(=O)N[C@H]3CCOC3)c2)c(F)cc1F [Compound 106]
- EC50 [1]: 2.22 µM
- EC50 [2]: 3.3 µM
- CC50 [3]: > 25 µM

Structure (SMILES): Cc1c(F)ccc(NC(=O)c2cccc(S(=O)(=O)NC3(C)COC3)c2)c1C [Compound 115]
- EC50 [1]: 2.74 µM
- EC50 [2]: 1.65 µM
- CC50 [3]: > 25 µM

Structure (SMILES): Cc1c(NC(=O)c2cccc(S(=O)(=O)N[C@H]3CCOC3)c2)ccc(F)c1F [Compound 118]
- EC50 [1]: 3.63 µM
- EC50 [2]: 1.91 µM
- CC50 [3]: > 25 µM

Structure (SMILES): Cc1cc(NC(=O)c2cccc(S(=O)(=O)NC3(C)COC3)c2)c(C)cc1F [Compound 119]
- EC50 [1]: 3.06 µM
- EC50 [2]: 1.91 µM
- CC50 [3]: > 25 µM
